{
  "source": "paper PMC5428013",
  "about": "“Peptide-Au Clusters Induced Tumor Cells Apoptosis via Targeting Glutathione Peroxidase-1: The Molecular Dynamics Assisted Experimental Studies” (Scientific Reports, 2017)",
  "key": {"A549 cells [1]": {"system": "A549 cells", "experiment": "Cell viability assay (CCK-8), A549", "assay_type": "cell-based, human", "conditions": "48 h; for cell viability suppression by peptide-Au clusters (words): A549, Au dose 0, 50, 100, 200, 400, 800 µM", "protocol": "(§1) Briefly, cells were prior cultured on 96-well plates (at the density of 5 × 10^3 cells/well) for 24 h to allow cells attachment. The cells were treated with different doses of these free peptides (0, 1, 4, 16, 64, 256, 1024 µM) and peptide-Au clusters (0, 50, 100, 200, 400, 800 µM in Au dose) for 48 h, respectively. The cells were washed three times with PBS and then incubated with fresh growth medium containing 10% (v/v) CCK-8 reagent for 1 h at 37 °C for cell viability assay. The absorbance was measured at 450 nm by using a microplate reader (SpectraMAX M2, Sunnyvale, California). Cell viability of untreated cells was set as 100%, and that of treated cells were expressed as a relative percentage of untreated cells. All data were shown as mean percentages ± standard deviation from three independent experiments."}, "GPx-1": {"system": "GPx-1", "experiment": "GPx-1 enzyme activity suppression in buffer", "assay_type": "biochemical, bovine", "conditions": "10 min", "description": "The peptides (N2H-CCYGGPEEEEEVG-COOH (named P1), NH2-CCYGGPDDDEDVG-COOH (named P2) and NH2-CCYGGPEEVEEVG-COOH (named P3)) were chemically synthesized by a solid phase method (China Peptides Co. Ltd, Purity: 98%). Hydrogen tetrachloroaurate (III) (HAuCl4·4H2O) was purchased from Sinopharm Chemical Reagent Co. Ltd. Sodium hydroxide (NaOH), nitric acid (HNO3), hydrochloric acid (HCl) and hydrogen peroxide (H2O2) were purchased from Beijing Chemical Reagent Co., China. Human non-small cell lung carcinoma cells (A549 cells), Henrietta Lacks strain of cancer cells (Hela cells) and human colon adenocarcinoma cells (HCT-8 cells) were from Cancer Institute and Hospital, Chinese Academy of Medical Sciences. Fetal bovine serum (FBS) and trypsin-EDTA were obtained from Gibco, USA. Penicillin-streptomycin solution, cell culture medium DMEM and RPMI 1640 were purchased from Hyclone. Hoechst 33342, LysoTracker®Green DND-26, and CM-H2DCFDA were from Molecular Probes, USA. NucView™ 488 Caspase-3 Assay Kit was bought from Biotium, USA. 5,5′,6,6′-tetrachloro-1,1′,3,3′-tetraethylbenzimidazolocarbocyanine iodide (JC-1), cell lysis buffer for Western and IP, phenylmethanesulfonyl fluoride (PMSF) and BCA Protein Assay Kit were obtained from Beyotime Institute of Biotechnology, China. Protease inhibitor cocktail tablets were from Roche Diagnostics, GmbH, Mannheim, Germany. Cell counting kit-8 (CCK-8) reagents and Annexin V-FITC/Propidium (PI) Apoptosis Detection Kit were purchased from Dojindo Laboratories, Japan. GPx from bovine erythrocytes […] was provided by Sigma Aldrich, USA. GPx Activity Colorimetric Assay Kit was provided by Biovision, USA. Anti-GPx-1 antibody was offered by Abcam, UK. PARP antibody, caspase-3 antibody and β-actin antibody were offered by Cell Signaling Technology, USA. Amicon ultra centrifugal filter devices (Merck Millipore, MWCO: 10 kDa) were used for purification steps. Ultrapure Millipore (Mini-Q) water (18.2 MΩ) was used throughout the experiments. […]\nPure GPx (lyophilized powder, ≥300 units/mg protein) were diluted by GPx sample buffer and incubated with peptide-Au clusters (Au25P1_9, Au25P2_9 and Au25P3_9) at a series of Au dose (0, 25, 100, 400 μM) for 10 min, respectively. […] The GPx activity of untreated samples was set as 100%, and that of peptide-Au clusters treated samples were expressed as a relative percentage of untreated ones.\nFigure S12. Peptide-Au clusters treated GPx-1 activity measured in buffer solution. The decrease in NADPH absorbance measured at 340 nm during the oxidation of NADPH to NADP is the indicative of GPx activity,^1, 2 which is in a dose dependent manner in tube experiments when treated with serial doses of peptide-Au clusters."}, "A549 cells [2]": {"system": "A549 cells", "experiment": "Uptake of Au25P1_9 by A549 cells determined by ICP-MS", "assay_type": "cell-based, human", "conditions": "Au dose 0, 100, 200, 400, 800 μM, 48 h", "protocol": "The cells were cultured in medium supplemented with 10% fetal bovine serum and 1% penicillin and streptomycin in a culture flask (25 cm^2), reseeded every 2–4 days to maintain subconfluency and kept in humidified atmosphere of 95% air and 5% CO2 at 37 °C. After cells reaching 80% confluence during the exponential growth in culture flask, the cells were harvested and subcultured on 6-well plate (at the density of 1 × 10^5 cells/well) for 24 h. Then the medium was discarded and fresh culture medium with Au25P1_9 at different doses was added to make cells exposed to final Au doses at 0, 100, 200, 400 and 800 μM, respectively. After another 48 h incubation, the cells were treated with trypsin and collected, and then washed thrice with PBS. 5 × 10^5 cells of each sample counted by flow cytometry were predigested by HNO3 and H2O2 at a volume ratio of 3:1 for 12 h and further digested by aqua regia at 160 °C, and then diluted to 10 mL aqueous solution with 1% HCl and 2% HNO3. Finally, the amount of Au25P1_9 taken into cells was measured by ICP-MS with Au calibration curve."}, "Hela cells": {"system": "Hela cells", "experiment": "Cell viability assay (CCK-8), Hela", "assay_type": "cell-based", "conditions": "same condition as A549", "protocol": "as §1"}, "caspase-3": {"system": "caspase-3", "experiment": "Caspase-3 activity assay (Nucview488, CLSM)", "assay_type": "cell-based, human", "conditions": "800 µM Au, 48 h, 5 µM Nucview488 substrate", "protocol": "A549 cells were seeded on glass-bottom dishes for 24 h, and the Au25P1_9 was added to culture medium and final Au dose was 800 µM. A549 cells were next exposed to Au25P1_9 for 48 h. Then the cells were washed three times with PBS and incubated with 5 µM Nucview488 caspase-3 substrate (which can be cleaved by caspase-3 and release the DNA dye to stain DNA with bright green fluorescence during apoptosis) at room temperature for 30 min. Finally, cells were washed with PBS and observed by CLSM with excitation at wavelengths of 488 nm."}},
  "note": "Entries after “also recorded” stand apart in the source; their conditions may differ.",
  "data": [
    {"sequence": "CCYGGPEEEEEVG [Au25P1_9, Au25 cluster coated by nine P1 peptides (…)]", "values": [
      {"measurement": "cell viability suppression by peptide-Au clusters (words)", "setting": "A549 cells [1]", "value": "can suppress cell viability"},
      {"measurement": "cell viability suppression by peptide-Au clusters (words)", "setting": "A549 cells [1]; listed as Au25P19", "value": "exhibits the best suppression capacity for A549 cell viability"},
      {"measurement": "cell viability (relative to untreated = 100%)", "setting": "A549 cells [1]; A549, Au dose of 800 μM, CCK-8, mean from three independent experiments", "value": 40, "unit": "%"},
      {"measurement": "GPx-1 activity suppression in buffer", "setting": "GPx-1; Au dose 0, 25, 100, 400 μM", "value": "exhibits the best suppression capacity for GPx-1; also recorded: the most effective candidate for suppression of GPx-1 activity in buffer and cells"},
      {"measurement": "GPx-1 activity (relative to untreated = 100%)", "setting": "GPx-1; buffer, Au dose of 400 μM, GPx Activity Colorimetric Assay Kit, NADPH absorbance at 340 nm", "value": 12, "unit": "%"},
      {"measurement": "cellular uptake", "setting": "A549 cells [2]", "value": "dosage dependent manner"},
      {"measurement": "change of cell viability", "setting": "Hela cells", "value": "almost negligible"},
      {"measurement": "caspase-3 activation", "setting": "caspase-3", "value": "strong Nucview488 emission"}
    ]}
  ]
}
